In patent publication US8354414B2, “Substituted bicyclic pyrimidines” (Cephalon, Inc, priority 2006, dated 2013):
pIC50: −log10 of the molar value. Where two headings read alike, the source gives them in different places.

Columns and labels:
[1] = target: T1, CDK5/GST-p25 (Homo sapiens, UniProt Q00535); test: Inhibition of CDK5/GST-p25 kinase activity (ELISA with time-resolved fluorescence readout); assay type: biochemical
T1 construct: The final construct, encoding for full-length human CDK5; made in house; host or cells: Sf21 insect cells (baculovirus co-infection)
In short: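 Sf21-coexpressed full-length human CDK5 with GST-p25 (p35 aa 108-307), glutathione-purified, at 2 ng/ml was reacted for 20 min at 37 °C on plate-coated GST-Rb(773-928). Buffer was 20 mM HEPES pH 7.2, 10 µM ATP, 10 mM MgCl2 and 2.5% DMSO. Phospho-Rb Ser-780 was detected by Eu-labelled antibody TRF, and IC50 curves were fitted.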

[2] = target: T2, His6-GSK-3β (Homo sapiens, UniProt P49841); test: Inhibition of His6-GSK-3β kinase activity (ELISA-based format, time-resolved fluorescence readout); assay type: biochemical; details: read-out: GSK3β IC50
T2 construct: made in house; host or cells: Sf21 insect cells (baculovirus)
In short: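 N-terminal His6-tagged full-length human GSK-3β (aa 2-419) expressed in Sf21 cells, 200 ng/ml, phosphorylating plate-coated GST-Rb with 20 μM ATP in pH 7.2 HEPES buffer, 30 min at 37° C. Phospho-Rb (Ser-780) detected by antibody plus Eu-labelled secondary, time-resolved fluorescence; IC50 from curves.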

T2 sequence (P49841 2-419): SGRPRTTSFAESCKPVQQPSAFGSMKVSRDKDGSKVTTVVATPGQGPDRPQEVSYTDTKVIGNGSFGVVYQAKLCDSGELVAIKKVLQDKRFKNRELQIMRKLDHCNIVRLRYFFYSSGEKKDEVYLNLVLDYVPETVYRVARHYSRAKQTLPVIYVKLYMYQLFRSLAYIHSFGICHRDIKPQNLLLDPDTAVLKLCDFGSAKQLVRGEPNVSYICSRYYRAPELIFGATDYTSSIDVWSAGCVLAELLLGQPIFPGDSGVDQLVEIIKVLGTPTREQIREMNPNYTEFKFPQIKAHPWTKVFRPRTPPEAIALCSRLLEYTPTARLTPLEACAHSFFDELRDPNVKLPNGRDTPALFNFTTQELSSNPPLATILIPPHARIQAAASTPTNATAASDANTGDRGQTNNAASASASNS
T1 sequence (Q00535 whole entry): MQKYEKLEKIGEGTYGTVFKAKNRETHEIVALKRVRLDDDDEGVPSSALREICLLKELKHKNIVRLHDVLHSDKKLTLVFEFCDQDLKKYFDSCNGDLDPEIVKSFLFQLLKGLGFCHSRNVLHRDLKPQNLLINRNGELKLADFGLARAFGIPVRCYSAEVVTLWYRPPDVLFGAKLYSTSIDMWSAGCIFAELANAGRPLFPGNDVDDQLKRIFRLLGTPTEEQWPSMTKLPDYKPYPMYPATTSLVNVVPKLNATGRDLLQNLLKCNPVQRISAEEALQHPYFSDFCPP
T1 sequence (Q15078 108-307 partner limits assumed): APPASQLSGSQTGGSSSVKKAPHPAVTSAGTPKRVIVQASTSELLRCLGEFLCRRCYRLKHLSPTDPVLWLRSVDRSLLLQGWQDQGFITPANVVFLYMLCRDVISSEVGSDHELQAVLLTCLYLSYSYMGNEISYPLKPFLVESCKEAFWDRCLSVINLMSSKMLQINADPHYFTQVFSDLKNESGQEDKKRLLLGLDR

| pIC50 ([1]; class symbols) | pIC50 ([2]; class symbols) | pIC50 ([1]; numeric bounds) | pIC50 ([2]; numeric bounds) | Structure (SMILES) |
| --- | --- | --- | --- | --- |
| < 5.00 | > 6.52 | – | – | CN1CCN(c2ccc(Nc3nc(C4C(=O)Nc5ccc(C#N)cc54)c4cn(C5CCCC5)nc4n3)cn2)CC1 (centres unmarked) [Example 137, 3-{2-cyclopentyl-6-[6-(4-methyl-piperazin-1-yl)-pyridin-3-yl-amino]-2H-pyrazolo [3,4-d]pyrimidin-4-yl}-2-oxo-2,3-dihydro-1H-indole-5-carbonitrile] |
| – | 5.52 to 6.52 | < 5.52 | – | O=C1Nc2ccc(Br)cc2C1c1nc(NCCN2CCOCC2)nc2c1CCC2 (centres unmarked) [Example 332, 5-Bromo-3-[2-(2-morpholin-4-yl-ethylamino)-6,7-dihydro-5H-cyclopentapyrimidin-4-yl]-1,3-dihydro-indol-2-one] |
| < 5.00 | – | – | < 5.52 | O=C1Nc2ccc(Br)cc2C1c1nc(NCc2ccncc2)nc2c1CCC2 (centres unmarked) [Example 336, 5-Bromo-3-{2-[(pyridin-4-ylmethyl)-amino]-6,7-dihydro-5H-cyclopentapyrimidin-4-yl}-1,3-dihydro-indol-2-one] |
| < 5.00 | – | – | < 5.52 | CC(C)Cn1cc2c(C3C(=O)Nc4ccc(Cl)cc43)nc(Cl)nc2n1 (centres unmarked) [Example 273, 5-Chloro-3-(6-chloro-2-isobutyl-2H-pyrazolo [3,4-d]pyrimidin-4-yl)-1,3-dihydro-indol-2-one] |
| < 5.00 | < 5.00 | – | – | O=C1Nc2ccc(F)cc2C1c1nc(NCCN2CCOCC2)nc2c1CCC2 (centres unmarked) [Example 318, 5-Fluoro-3-[2-(2-morpholin-4-ylethylamino)-6,7-dihydro-5H-cyclopentapyrimidin-4-yl]-1,3-dihydro-indol-2-one] |
| < 5.00 | 5.52 to 6.52 | – | – | O=C1Nc2ccc(Br)cc2C1c1nc(NCCCN2CCOCC2)nc2c1CCC2 (centres unmarked) [Example 331, 5-Bromo-3-[2-(3-morpholin-4-yl-propylamino)-6,7-dihydro-5H-cyclopentapyrimidin-4-yl]-1,3-dihydro-indol-2-one] |
| – | 5.52 to 6.52 | < 5.52 | – | N#Cc1ccc2c(c1)C(c1nc(Nc3cccnc3)nc3c1CCC3)C(=O)N2 (centres unmarked) [Example 350, 2-Oxo-3-[2-(pyridin-3-ylamino)-6,7-dihydro-5H-cyclopentapyrimidin-4-yl]-2,3-dihydro-1H-indole-5-carbonitrile] |
| > 6.52 | > 6.52 | – | – | N#Cc1ccc2c(c1)C(c1ncnc3nn(C4CCCCC4)cc13)C(=O)N2 (centres unmarked) [Example 45, 3-(2-Cyclohexyl-2H-pyrazolo [3,4-d]pyrimidin-4-yl)-2-oxo-2,3-dihydro-1H-indole-5-carbonitrile] |
| > 6.52 | > 6.52 | – | – | N#Cc1ccc2c(c1)C(c1nc(NCc3ccncc3)nc3nn(C4CCCC4)cc13)C(=O)N2 (centres unmarked) [Example 176, 3-{2-Cyclopentyl-6-[(pyridin-4-ylmethyl)-amino]-2H-pyrazolo[3,4-d]pyrimidin-4-yl}-2-oxo-2,3-dihydro-1H-indole-5-carbonitrile] |
| < 5.00 | < 5.00 | – | – | O=C1Nc2ccc(F)cc2C1c1nc(Cl)nc2c1CCC2 (centres unmarked) [Example 315, 3-(2-Chloro-6,7-dihydro-5H-cyclopentapyrimidin-4-yl)-5-fluoro-1,3-dihydro-indol-2-one] |
| < 5.00 | > 6.52 | – | – | O=C1Nc2ccc(Cl)cc2C1c1nc(N2CCOCC2)nc2nn(C3CCCC3)cc12 (centres unmarked) [Example 143, 5-Chloro-3-(2-cyclopentyl-6-morpholin-4-yl-2H-pyrazolo [3,4-d]pyrimidin-4-yl)-1,3-dihydro-indol-2-one] |
| > 6.52 | > 6.52 | – | – | CCCn1cc2c(C3C(=O)Nc4ccc(C#N)cc43)nc(NCc3cccnc3)nc2n1 (centres unmarked) [Example 184, 2-Oxo-3-{2-propyl-6-[(pyridin-3-ylmethyl)-amino]-2H-pyrazolo[3,4-d]pyrimidin-4-yl}-2,3-dihydro-1H-indole-5-carbonitrile] |
| > 6.52 | > 6.52 | – | – | N#Cc1ccc2c(c1)C(c1nc(NCc3cccnc3)nc3nn(C4CCCC4)cc13)C(=O)N2 (centres unmarked) [Example 133, 3-{2-cyclopentyl-6-[(pyridin-3-ylmethyl)amino]-2H-pyrazolo[3,4-d]pyrimidin-4-yl}-2-oxo-2,3-dihydro-1H-indole-5-carbonitrile] |
